This note sets out measurements from patent publication US20170114346A1, “GENE EXPRESSION SYSTEM AND […]” (priority 2014, published 2017).

Structures are written as SMILES.

In the assay the test system is 6-OHDA lesioned rats (striatum). Nature of the assay: Experiment 1 online microdialysis in anesthetized rats (baseline, NSD-1015, NSD+TMP). It counts as in vivo, rat. As for the experimental part:
The second microdialysis protocol in Experiment 1 (identical microdialysis methods and protocols were used in the pilot study) was performed in anaesthetized animals was performed in TH+DD-GCH1 treated animals that received oral TMP administration in their drinking water at least 2 weeks prior sampling; either 0.5 mg/ml (n=4) or 2 mg/ml (n=5) (same TMP emulsion that was administered to the animals followed with behavior tests). In addition, this experiment also included animals from the TH+GCH1 (n=3), Les-Sham (n=2) and intact control (n=3) groups. Probe placement was calculated to position the membrane of the probe in the center of the transduction area in striatum, which corresponded to the coordinates: AP: +0.5 mm; ML: −3.7 mm and DV: −5.7 mm with the tooth bar set to −2.4 mm. […] Samples were analyzed readily as described for the first microdialysis experiment. After the last sample was collected the animal was terminated and brain tissue taken for histology.

For the molecule `COc1cc(Cc2cnc(N)nc2N)cc(OC)c1OC` [TMP, trimethoprim], the “biochemical reconstitution with oral TMP” value (0.5 and 2.0 mg/ml TMP in drinking water, TH+DD-GCH1 treated rats) is reported as “both were effective in reaching a similar biochemical reconstitution”. Also, the “DOPA levels after addition of TMP to the ringer solution” value (2E-5 M TMP lactate plus NSD-1015 via probe for 2 h, after 2 weeks oral TMP) is given as “did not further increase the DOPA levels”.
